Assay results published in article PMC8022858, “Discovery of bone morphogenetic protein 7-derived peptide sequences that attenuate the human osteoarthritic chondrocyte phenotype” (Molecular Therapy. Methods & Clinical Development, 2021).

Tests used:
Assay type in all cases: cell-based
[1] = tested on: human OA knee cartilage explants; experiment: GAG release in medium from cartilage explants; conditions: n = 5 donors, 24 h, relative to control (Figure 6B)
Procedure: To determine whether peptide p[63−82] has the potency to alter chondrocyte behavior in cartilage tissue, rather than isolated HACs, cartilage biopsies from OA knees were cultured in the presence of peptide p[63−82], alongside its scrambled version and full-length BMP7.
Figure 6 Peptide p[63−82] activity on OA knee joint tissues Human OA knee joint tissues were cultured for 24 h in the presence of BMP7, peptide p[63−82], or the scrambled version of peptide p[63−82] and compared to control conditions. (A) Cartilage tissues (n = 7 individual donors) were exposed to shown conditions and analyzed for COL2A1, COL10A1, and COX-2 mRNA expression by quantitative real-time PCR (normalized for 28S rRNA expression and relative to control conditions). (B) GAG release in medium from cartilage tissues (n = 5 individual donors) was determined, and data were calculated relative to the control condition. (C) PGE2 levels in culture supernatant from synovium (n = 5 donors). (D) PGE2 levels in culture supernatant from cartilage tissues from (B) (n = 5 donors). (E) PGE2 levels in culture supernatant from IPFP (n = 5 donors). (F) PGE2 levels in culture supernatant from the meniscus. […] PGE2 levels in conditions were calculated relative to controls for each donor. […] Statistical differences (unpaired two-tailed Student’s t test) were calculated to control condition: ∗p < 0.05, ∗∗p < 0.01, and ∗∗∗p < 0.001. […]

[2] = tested on: human OA synovium explants; experiment: PGE2 levels in culture supernatant of synovium explants; conditions: n = 5 donors, 24 h, relative to control (Figure 6C)
Procedure: (§1) Figure 6 Peptide p[63−82] activity on OA knee joint tissues Human OA knee joint tissues were cultured for 24 h in the presence of BMP7, peptide p[63−82], or the scrambled version of peptide p[63−82] and compared to control conditions. (A) Cartilage tissues (n = 7 individual donors) were exposed to shown conditions and analyzed for COL2A1, COL10A1, and COX-2 mRNA expression by quantitative real-time PCR (normalized for 28S rRNA expression and relative to control conditions). (B) GAG release in medium from cartilage tissues (n = 5 individual donors) was determined, and data were calculated relative to the control condition. (C) PGE2 levels in culture supernatant from synovium (n = 5 donors). (D) PGE2 levels in culture supernatant from cartilage tissues from (B) (n = 5 donors). (E) PGE2 levels in culture supernatant from IPFP (n = 5 donors). (F) PGE2 levels in culture supernatant from the meniscus. Synovium, IPFP, and meniscus tissues were from the same 5 donors as the cartilage tissues in (B) and (C). PGE2 levels in conditions were calculated relative to controls for each donor. In graphs, error bars represent mean ± SEM; data are presented relative to the control condition for each time point. Statistical differences (unpaired two-tailed Student’s t test) were calculated to control condition: ∗p < 0.05, ∗∗p < 0.01, and ∗∗∗p < 0.001. […]

[3] = tested on: human OA meniscus explants; experiment: PGE2 levels in culture supernatant of meniscus explants; conditions: 24 h, relative to control (Figure 6F)
Procedure: as §1

Question: Which “sGAG release from cartilage explants” value [1] does the source give for H-AAYYSEGESAFPLNSYMNAT-OH [p[63−82]] here?
Answer: no inhibitory effect

Question: And the “PGE2 levels in culture supernatants of synovial explants” value [2]?
Answer: not significantly changed

Question: And the “PGE2 levels from meniscus explants” value [3]?
Answer: reduced

Question: What does the source list for “BMP7: full-length recombinant bone morphogenetic protein 7 (R&D Systems), used at 1 nM”?
Answer: sGAG release from cartilage explants [1]: no inhibitory effect; PGE2 levels in culture supernatants of synovial explants [2]: not significantly changed; PGE2 levels from meniscus explants [3]: reduced
